Columns and labels:
PA2801 = target: T1, PA2801 (Pseudomonas aeruginosa, UniProt Q9I042); assay: DTNB assay on clarified lysate, empty-vector lysate control; assay type: biochemical; conditions: 0.2 mM substrate, 100 mM triethanolamine pH 8, 25 °C, 0.4 mM DTNB
T1 construct: full-length in pET29a, expressed in E. coli BL21(DE3), clarified lysate
T1 sequence (Q9I042 1-134): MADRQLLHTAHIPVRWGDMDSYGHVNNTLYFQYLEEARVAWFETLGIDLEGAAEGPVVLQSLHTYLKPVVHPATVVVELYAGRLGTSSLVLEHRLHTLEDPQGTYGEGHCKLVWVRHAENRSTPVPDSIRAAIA

YbdB = target: T2, YbdB (Escherichia coli, UniProt P0A8Y8); assay: as above; assay type: biochemical; conditions: 0.2 mM substrate, 100 mM triethanolamine pH 8, 25 °C, 0.4 mM DTNB
T2 construct: gene entH; full-length in pET29a, expressed in E. coli BL21(DE3), clarified lysate
T2 sequence (P0A8Y8 1-137): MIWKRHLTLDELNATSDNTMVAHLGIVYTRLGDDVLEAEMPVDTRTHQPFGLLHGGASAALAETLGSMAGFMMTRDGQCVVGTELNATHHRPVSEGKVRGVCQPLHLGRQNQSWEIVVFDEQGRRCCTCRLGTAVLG

With CC(O)CC(=O)SCCNC(=O)CCNC(=O)[C@H](O)C(C)(C)COP(=O)(O)OP(=O)(O)OC[C@H]1O[C@@H](n2cnc3c(N)ncnc32)[C@H](O)[C@@H]1OP(=O)(O)O (mixture of isomers) [DLBH CoA, DL-β-hydroxybutyryl CoA] the “DTNB assay on clarified lysate, empty-vector lysate control” value (shortened to “DTNB assay on clarified lysate”) (PA2801) was “PA2801 was found to have activity towards the aliphatic CoA esters: DLBH CoA”.

In the case of CC(C)(COP(=O)(O)OP(=O)(O)OC[C@H]1O[C@@H](n2cnc3c(N)ncnc32)[C@H](O)[C@@H]1OP(=O)(O)O)[C@@H](O)C(=O)NCCC(=O)NCCSC(=O)c1ccccc1 [Bz CoA, Benzoyl CoA], the “DTNB assay on clarified lysate” value (YbdB) was “YbdB was found to only have activity towards Bz CoA and nHD CoA”.

For CC(C)(COP(=O)(O)OP(=O)(O)OC[C@H]1O[C@@H](n2cnc3c(N)ncnc32)[C@H](O)[C@@H]1OP(=O)(O)O)[C@@H](O)C(=O)NCCC(=O)NCCSC(=O)C1CCCCC1 [CHC CoA, cyclohexanecarboxylic acid coenzyme A], the “DTNB assay on clarified lysate” value (PA2801) was “despite activity being found with CHC CoA, no activity was found with CHC-NAC”.

For CCCCCCCCCCCCCCCCC(=O)SCCNC(=O)CCNC(=O)[C@H](O)C(C)(C)COP(=O)(O)OP(=O)(O)OC[C@H]1O[C@@H](n2cnc3c(N)ncnc32)[C@H](O)[C@@H]1OP(=O)(O)O [nHD CoA, n-heptadecanoyl CoA], the “DTNB assay on clarified lysate” value (YbdB) was “YbdB was found to only have activity towards Bz CoA and nHD CoA”.
